Measured values as given in patent publication US20260335288A1, “Pharmacologic Targeting of Genetic Factors That Control Jet Lag” (University of Pittsburgh-Of the Commonwealth System of …, priority 2022, published 2026).

Experiments:
[1] = test system: human pulmonary artery endothelial cells (PAECs); test: BrdU cell proliferation assay in human pulmonary artery endothelial cells; format: cell-based; details: compound 173 treatment, 5 mM (so in the source), FIG. 5 panels B & E
Experimental: (§1) Cell Culture. Primary human pulmonary artery endothelial cells (HPAECs) or mouse fibroblasts harboring a luciferase reporter under the control of a Period 2 (PER2) promoter (MF-Luc) were seeded into tissue culture dishes (Perkin Elmer) in a humidified incubator at 37 °C and 5% CO2. For knockdown experiments, cells were pre-treated with 20 nM “Silencer Select” scrambled silencing RNA (siNC) or with antisense targeting of Np/(siNPL) for 48 hours (ThermoFisher). For chemical treatments, cells were treated with vehicle (DMSO) or 5 mM 173.
Cell Proliferation. Cell proliferation was measured using the BrdU Cell Proliferation Assay Kit (Cell Signaling Technologies) according to the manufacturer's instructions.

[2] = test system: MF-Luc cells; test: Lumicycle recording of circadian period in MF-Luc cells (PER2 promoter luciferase reporter); format: cell-based, mouse; details: compound 173 treatment, 5 mM (so in the source), recorded 7 days, FIG. 4 and FIG. 5 panels C & F
Experimental: as §1
Lumicycle Recording. Prior to circadian measurement, cells were synchronized with […] forskolin (Sigma) in Dulbecco's Modified Eagle Medium (DMEM) supplemented with 0.1% fetal bovine serum, and 100 mM Beetle luciferin (Promega) luciferase substrate was added for bioluminescent recording. Culture dishes were then sealed with sterile vacuum grease and placed in the Lumicycle 96 (Actimetrics) in a dehumidified incubator at 37 °C. Luminescence was recorded continuously for 7 days, and the initial 12 hours of data was omitted from the analysis to allow time for cell synchronization. […] Period was calculated as 2p/w. Period was analyzed if the R^2 was greater than 0.8.

[3] = test system: human pulmonary artery endothelial cells (PAECs); test: Caspase-Glo 3/7 apoptosis assay in human pulmonary artery endothelial cells; format: cell-based; details: compound 173 treatment, 5 mM (so in the source), FIG. 5 panels A & D
Experimental: as §1
Apoptosis. Apoptosis was measured using the Caspase-Glo 3/7 Assay System (Promega) according to the manufacturer's instructions.

## Cc1ccc(-c2n[nH]c3c2C2(C(=O)N(C)c4ccccc42)N(C)C3=O)c(O)c1 (stereo not shown) [Compound 173]
[1]
  Proliferation: decreased
[2]
  Circadian period length: decreased
[2]; listed as compound 173
  Circadian period length: significantly decreased
[3]
  Apoptosis: increased
